From patent US20100003217A1, “Compounds and Pharmaceutical Compositions for the Treatment of Viral Infections” (priority 2008, published 2010)
Several values for one entry are separate records, joined by “and”; a condition that tells them apart may be missing. Equal entries are not always repeated.

Columns and labels:
[1] = tested on: monkey primary hepatocytes; assay: Metabolic disposition of [^14C]-Compound 1 and [^14C]-2′-C-methyl guanosine in monkey primary hepatocytes (incubation medium, cellular extracts, nucleotide levels); format: in vitro ADME, Cynomolgus monkey
Procedure: (§1) Primary hepatocytes: Freshly isolated cells from animal and human liver were obtained in suspension on ice. Cells were pelleted by centrifugation at 70-75×g (rat) or 95-90×g (monkey and human) and resuspended at 0.8 million cells per mL of platting medium (William's E supplemented with 5% FBS, 0.5% penicillin-streptomycin, 1% L-glutamine, 4 μg/mL insulin and 1 μM dexamethasone). Multi-well collagen I-coated plates (rat tail collagen type I; 12- or 6-well) were then seeded by addition of 1 mL (12-well; 0.8 million cells/well) or 2 mL (6-well; 1.6 million cells/well) of cell suspension. The plates were gently shaken to evenly distribute the cells and placed in an incubator at 37° C. for approximately 4 to 6 hours to allow cells to attach. Once cells were attached, the platting medium was removed and replaced with hepatocyte culture medium (William's E supplemented with penicillin-streptomycin, 1% L-glutamine, 1% insulin-transferrin-selenium and 0.1 μM dexamethasone). Cells were left overnight in an incubator at 37° C. to acclimatize to culture and the medium.
(§2) Hepatocyte incubations with radiolabeled Compound 1 and 2′-C-methyl guanosine, both labeled in the C-8 position of the guanine moiety, were conducted at a final volume of 2.0 mL hepatocyte culture medium/well ([…]). Culture medium from overnight incubation of cells was removed and replaced with fresh medium, pre-warmed to 37° C., containing 1 or 10 μM [^14C]-Compound 1 ([…]) or [^14C]-2′-C-methyl guanosine (127 DPM/μmol) from a stock solution in DMSO (final DMSO concentration was 0.1%) or 50% ethanol (final ethanol concentration was 0.2%). After 1, 4, 8 and 24 hours, 0.5-1.0 mL of incubation medium was removed and stored at −20° C. until analysis (described below). The remaining medium was discarded and cell monolayers were carefully washed two times with ice-cold PBS. Following the last wash, all PBS was carefully removed and 1.0 mL of extraction solution (ice-cold 70% methanol) added. Cells were scrapped off and suspended in the extraction solution, transferred to 2 mL polypropylene microfuge tubes and intracellular contents extracted overnight at −20° C.
(§3) Preliminary identification of putative metabolites was conducted by comparing the retention time of observed metabolites in incubation medium and cellular extracts with retention times obtained with chemically synthesized standards using the chromatography conditions described below. Further identification of 2′-C-methyl guanosine nucleotides (mono-, di- and triphosphate) was carried out by incubating cellular extract samples with alkaline phosphatase (10 units for 60 min at 37° C.) and comparing the HPLC retention times of the resulting nucleosides with that of authentic 2′-C-methyl guanosine.
(§4) Cellular extracts were prepared by centrifugation at 16,000 RCF using an Eppendorf microcentrifuge (Eppendorf, Model 5415D) for 10 min to remove cellular debris. An aliquot of 5-10 μL of the supernatant was added to 5 mL of EcoLite™ (MP, Irvine, Calif.) liquid scintillation cocktail and radioactivity measured by liquid scintillation counting (LSC) using a Beckman Coulter LS6500 multipurpose liquid scintillation counter (Beckman Instruments, Fullerton, Calif.). The remaining sample was then dried using a Labconco refrigerated centrivap concentrator (Labconco, Kansas City, Mo.). Dry extracts were reconstituted in 120 μL of HPLC-grade water and centrifuged at 16,000 RCF using an Eppendorf microcentrifuge for 10 min. Prior to HPLC analysis (described below), radioactivity of the concentrated extracts was measured by LSC using 5 μL aliquots. Extraction recovery was then determined by comparing total radioactivity in extracts before and after drying. The remaining extract was then analyzed by HPLC with online radioactivity detection using a Flow Scintillation Analyzer Radiomatic™ 515TR. Radioactivity in the separated components was quantified by integrating the peaks using Flo-One™ Software (Perkin Elmer Life Sciences). […]

rat primary hepatocytes = assay: Metabolic disposition of [^14C]-Compound 1 and [^14C]-2′-C-methyl guanosine in rat primary hepatocytes (incubation medium, cellular extracts, nucleotide levels); format: in vitro ADME, Sprague Dawley rat
Procedure: as §1, §2, §3, §4

[2] = monkey hepatocytes (Cy234), 10 μM [^14C]-Compound 1, 4 h
[3] = monkey hepatocytes Cy230, 10 μM [^14C]-2′-C-methyl guanosine, 1 h
[4] = monkey hepatocytes Cy230, 10 μM [^14C]-2′-C-methyl guanosine, 8 h
[5] = monkey hepatocytes Cy230, 10 μM [^14C]-2′-C-methyl guanosine, 24 h
[6] = monkey hepatocytes Cy234, 10 μM [^14C]-2′-C-methyl guanosine, 1 h
[7] = monkey hepatocytes Cy234, 10 μM [^14C]-2′-C-methyl guanosine, 4 h
[8] = monkey hepatocytes Cy234, 10 μM [^14C]-2′-C-methyl guanosine, 8 h
[9] = monkey hepatocytes Cy234, 10 μM [^14C]-2′-C-methyl guanosine, 24 h
[10] = rat hepatocytes (Rs458), 1 μM [^14C]-Compound 1, 0 h
[11] = rat hepatocytes (Rs458), 1 μM [^14C]-Compound 1, 1 h
[12] = rat hepatocytes (Rs458), 1 μM [^14C]-Compound 1, 8 h

metabolites observed in cellular extracts (% of total radioactivity) ([1]; monkey hepatocytes (Cy230, Cy234), 10 μM [^14C]-Compound 1, 8 h): 3.84% and 5.38%
metabolites observed in cellular extracts (% of total radioactivity) ([1]; monkey hepatocytes (Cy230, Cy234), 10 μM [^14C]-Compound 1, 24 h): 6.96% and 3.34%
2′-C-methyl guanosine nucleotide levels in cellular extracts [1, 2]: 14.3 pmol/million cells
metabolites observed in cellular extracts (% of total radioactivity) [1, 2]: 5.47%
metabolites observed in medium (% of total radioactivity) ([1]; monkey hepatocytes (lot Cy234), 10 μM [^14C]-Compound 1, 4 h): 19.0%
metabolites observed in medium (% of total radioactivity) ([1]; monkey hepatocytes (lots Cy230, Cy234), 10 μM [^14C]-Compound 1, 0 h): BLD
metabolites observed in medium (% of total radioactivity) ([1]; monkey hepatocytes (lots Cy230, Cy234), 10 μM [^14C]-Compound 1, 24 h): 8% and 8.4% and 7.5%
2′-C-methyl guanosine nucleotide levels in cellular extracts ([1]; monkey hepatocytes Cy230, 10 μM [^14C]-2′-C-methyl guanosine, 0 h): 0 pmol/million cells
2′-C-methyl guanosine nucleotide levels in cellular extracts ([1]; monkey hepatocytes Cy230, 10 μM [^14C]-Compound 1, 0 h): 0 pmol/million cells
2′-C-methyl guanosine nucleotide levels in cellular extracts ([1]; monkey hepatocytes Cy230, 10 μM [^14C]-Compound 1, 1 h): 23.9 pmol/million cells
2′-C-methyl guanosine nucleotide levels in cellular extracts ([1]; monkey hepatocytes Cy230, 10 μM [^14C]-Compound 1, 8 h): 42.5 pmol/million cells
2′-C-methyl guanosine nucleotide levels in cellular extracts ([1]; monkey hepatocytes Cy230, 10 μM [^14C]-Compound 1, 24 h): 33.2 pmol/million cells
2′-C-methyl guanosine nucleotide levels in cellular extracts ([1]; monkey hepatocytes Cy234, 10 μM [^14C]-2′-C-methyl guanosine, 0 h): 0 pmol/million cells
2′-C-methyl guanosine nucleotide levels in cellular extracts [1, 6]: 0.95 pmol/million cells
Major metabolites observed in cellular extracts (% of total radioactivity) [1, 6]: 2.19 % of total radioactivity
2′-C-methyl guanosine nucleotide levels in cellular extracts [1, 8]: 3.00 pmol/million cells
Major metabolites observed in cellular extracts (% of total radioactivity) [1, 8]: 3.32 % of total radioactivity
2′-C-methyl guanosine nucleotide levels in cellular extracts [1, 9]: 5.50 pmol/million cells
Major metabolites observed in cellular extracts (% of total radioactivity) [1, 9]: 5.03 % of total radioactivity
2′-C-methyl guanosine nucleotide levels in cellular extracts ([1]; monkey hepatocytes Cy234, 10 μM [^14C]-Compound 1, 0 h): 0 pmol/million cells
2′-C-methyl guanosine nucleotide levels in cellular extracts ([1]; monkey hepatocytes Cy234, 10 μM [^14C]-Compound 1, 1 h): 11.7 pmol/million cells
2′-C-methyl guanosine nucleotide levels in cellular extracts ([1]; monkey hepatocytes Cy234, 10 μM [^14C]-Compound 1, 8 h): 33.0 pmol/million cells
2′-C-methyl guanosine nucleotide levels in cellular extracts ([1]; monkey hepatocytes Cy234, 10 μM [^14C]-Compound 1, 24 h): 23.2 pmol/million cells
metabolites observed in cellular extracts (% of total radioactivity) (rat primary hepatocytes; rat hepatocytes (Rs448, Rs458), 10 μM [^14C]-Compound 1, 1 h, listed as Compd 5): 4.37% and 2.65%
metabolites observed in cellular extracts (% of total radioactivity) (rat primary hepatocytes; rat hepatocytes (Rs448, Rs458), 10 μM [^14C]-Compound 1, 4 h, listed as Compd 5): 4.02% and 4.53%
metabolites observed in cellular extracts (% of total radioactivity) (rat primary hepatocytes; rat hepatocytes (Rs448, Rs458), 10 μM [^14C]-Compound 1, 8 h, listed as Compd 5): 3.23% and 3.84%
metabolites observed in medium (% of total radioactivity) (rat primary hepatocytes; [10]): BLD
2′-C-methyl guanosine nucleotide levels in cellular extracts (rat primary hepatocytes; [11]): 6.00 pmol/million cells
metabolites observed in cellular extracts (% of total radioactivity) (rat primary hepatocytes; [11]): 3.74%
metabolites observed in medium (% of total radioactivity) (rat primary hepatocytes; [11]): BLD
2′-C-methyl guanosine nucleotide levels in cellular extracts (rat primary hepatocytes; [12]): 11.0 pmol/million cells
metabolites observed in cellular extracts (% of total radioactivity) (rat primary hepatocytes; [12]): 3.51%
metabolites observed in medium (% of total radioactivity) (rat primary hepatocytes; [12]): 6.41%
Structure (SMILES): C[C@@]1(O)[C@H](O)[C@@H](COP(=O)(O)O)O[C@H]1n1cnc2c(=O)[nH]c(N)nc21 [Compound 5, [(2R)-2-methyl-β-D-ribofuranosyl]guanine 5′-monophosphate]
2′-C-methyl guanosine nucleotide levels in cellular extracts [1, 3]: BLD^b (BLD = below limit of detection (0.02 pmol/million cells))
Major metabolites observed in cellular extracts (% of total radioactivity) [1, 3]: BLD^b (BLD = below limit of detection (30 DPM))
2′-C-methyl guanosine nucleotide levels in cellular extracts [1, 4]: BLD (BLD = below limit of detection (0.02 pmol/million cells))
Major metabolites observed in cellular extracts (% of total radioactivity) [1, 4]: BLD (BLD = below limit of detection (30 DPM))
2′-C-methyl guanosine nucleotide levels in cellular extracts [1, 5]: BLD (BLD = below limit of detection (0.02 pmol/million cells))
Major metabolites observed in cellular extracts (% of total radioactivity) [1, 5]: BLD (BLD = below limit of detection (30 DPM))
2′-C-methyl guanosine nucleotide levels in cellular extracts [1, 7]: BLD (BLD = below limit of detection (0.02 pmol/million cells))
Major metabolites observed in cellular extracts (% of total radioactivity) [1, 7]: BLD (BLD = below limit of detection (30 DPM))
2′-C-methyl guanosine nucleotide levels in cellular extracts (rat primary hepatocytes; [10]): BLD (BLD = below limit of detection (0.02 pmol/million cells))
